Where no end group is shown, it is not given here.
How the values were obtained:
Type in all cases: cell-based
IκB = assay: Western blot of IκB degradation (EDA1-EDAR signal); conditions: HaCaT keratinocytes, 20 min
Method: (§1) HaCaT kerationcytes were incubated with the peptides synthesized in preparation Example 1 for 20 min. The translocation of NF-κB into nucleus through the phosphorylation of IκB was examined as a representative signaling of EDA protein. The respective effect was measured by Western blot analysis using an antibody against IκB and NF-κB (SantaCruz, USA). The effect of IκB degradation through phosphorylation and uniquitination in a concentration dependent manner of the treated peptides of this invention was confirmed (FIGS. 3a and 3b). Furthermore, the activation and nucleus translocation of NF-κB was also observed after degradation of IκB (FIGS. 4a and 4b). […] The expression levels of the above mentioned proteins of IL-1b, IL-6, and COX-2 were increased with the translocations of NF-κB into nucleus which is induced by the treatments of the peptides.

NF-κB = assay: Western blot of NF-κB translocation into nucleus; conditions: HaCaT keratinocytes, 20 min
Method: as §1

Shh protein = assay: Western blot of Shh protein expression; conditions: keratinocytes, 10 μg/ml, 24 hr
Method: To verify whether the peptides synthesized in preparation Example 1 enhances the expression of Shh protein which is known as EDA1 target molecule and to stimulate the hair follicle, kerationcytes (3×10^5 cells) was added to each well of 96-well plates and cultured under 5% CO2 for 24 hr at 37° C. After 24-hr culture, the medium was changed with a fresh medium without serum and cells were treated with empty sample (for normalization) and peptides synthesized aseptically dissolved in distilled water with the concentration of 10 μg/ml and cultured for 24 hr under the same conditions as described above. After that, the cell culture was collected and the expression level of Shh was measured through Western blotting using the specific antibody to Shh protein.

IL-1b, IL-6, and COX-2 = assay: RT-PCR of NF-κB-induced genes; conditions: HaCaT keratinocytes
Method: as §1

NIH3T3 fibroblasts = assay: SRB colorimetric assay of cell growth; conditions: 1, 10 and 50 μg/ml, 72 hr, absorbance at 590 nm
Method: In order to evaluate three peptides prepared in Preparation Example 1 whether they have similar activities of growth factor, SRB (Sulforhodamine B; Sigma-Aldrich) colorimetric assay was carried out using HaCaT kerationcytes (Korean Cell Line Bank) and NIH3T3 fibroblasts (Korean Cell Line Bank) according to Rizzino et al. method (Rizzino, et al. Cancer Res., 48: 4266 (1988)).
HaCaT ketatinocytes and NIH3T3 fibroblasts were cultured in 250 ml-flasks containing EMEM (Eagle's minimal essential media; Gibco, USA) supplemented with 10% FBS (fetal bovine serum; Sigma). Cells cultured were treated with 1% trypsin solution to detach cells from the bottom of culture flasks and centrifuged to collect cell pellets. After cells were resuspended in EMEM not containing FBS, its aliquot (3×10^3 cells) was added to each well of 96-well plates and cultured under 5% CO2 for 24 hr at 37° C. After 24-hr culture, the medium was changed with a fresh medium without serum and cells were incubated with empty sample (for normalization) and peptides synthesized aseptically dissolved in […] distilled water with the respective concentrations of 1 μg/ml, 10 μg/ml and 50 μg/ml for 72 hr under the same conditions as described above. After removing supernatants, cells were fixed with ethanol and then washed three times using PBS (phosphate buffered saline), followed by incubation with SRB solution. Cells were sufficiently washed with 1% acetic acid and observed under a microscope to find living cell condition. In addition, absorbance at 590 nm was measured to analyze cell viability.

| Sequence | cellular amount of IκB protein (degradation through phosphorylation and ubiquitination) (IκB) | translocation of NF-κB into nucleus (NF-κB) | expression of Shh protein (Shh protein) | expression of COX-2, IL-6, IL-1b (IL-1b, IL-6, and COX-2) | growth of fibroblasts (NIH3T3 fibroblasts) | growth of fibroblasts (NIH3T3 fibroblasts; listed as SEQ ID NO:1) | growth of fibroblasts (NIH3T3 fibroblasts; listed as SEQ ID NO:2) |
| --- | --- | --- | --- | --- | --- | --- | --- |
| NMSKHTTFFGA | reduced | translocation of NF-κB into nucleus after activation | remarkably enhanced | remarkably enhanced | notably increases | stimulatory effect |  |
| LLADTTHHRPWT [compound 2] | reduced | translocation of NF-κB into nucleus after activation | remarkably enhanced | remarkably enhanced | notably increases |  | stimulatory effect |
